Read-outs that look alike come from different tables or passages of the source.
Experiments:
HeLa MKYP cells [1] = assay: Human mitophagy assay (HeLa MKYP, mtKeima FACS, FCCP/oligomycin); assay type: cell-based; conditions: for EC50: Homo sapiens, HeLa
Protocol: Briefly, HeLa MKYP cells were plated at 10,000 cells/well in 96 well plates along with compounds at various concentrations. Following 16 hrs of incubation, cells were treated with 1 uM FCCP/oligomycin for 6 hours, then analyzed via FACS for the presence of mitochondria in lysosomes (as determined by an emissions spectrum shift from the pH-sensitive mtKeima tag). Examples are shown in FIG. 1 through FIG. 13 below.

HeLa MKYP cells [2] = assay: Toxicity / cell death measured by DAPI staining (take-up); assay type: cell-based; conditions: 50 μM
Protocol: H2O2 treatment was performed as a control for cell death as measured by DAPI staining.
Briefly, HeLa MKYP cells were plated at 10,000 cells/well in 96 well plates along with compounds at various concentrations. Following 16 hrs of incubation, cells were treated with 1 uM FCCP/oligomycin for 6 hours, then analyzed via FACS for the presence of mitochondria in lysosomes (as determined by an emissions spectrum shift from the pH-sensitive mtKeima tag).

[3] = Visual inspection of crystallization; assay type: physicochemical; set-up: key: 1: yes crystals; 0: no crystals; conditions: Tables 5A-5D
Protocol: (§1) Briefly, the Hela MKYP (Mito-Keima/YFP-Parkin) cells were seeded at 10K cells/well. EP/MTK compounds were added at seeding (cells were still in suspension). The cells were incubated with the EP/MTK compounds for 16 hours, then 1 μM FCCP/oligomycin was added for 6 hours. Prior to harvesting, cells were scored by eye under 20× magnification for the presence or absence of crystalline or aggregated compound, or round cells.

[4] = tested on: Hela MKYP (Mito-Keima/YFP-Parkin) cells; assay: Inspection of round cells; conditions: Tables 6A-6D
Protocol: as §1

[5] = Table 3, read-out: Potency at 1 μM F/O toxin* (EC50 of mitophagy activation)
[6] = Table 3 Supplement A, as measured in Table 3, read-out: Potency (EC50 Max Mitophagy) (μM)*

Row | SMILES | EC50 (HeLa MKYP cells [1]; [5]) | EC50 (HeLa MKYP cells [1]; [6]) | Toxicity (% positive for DAPI takeup @ 50 μM) (HeLa MKYP cells [2]; Table 3) | Toxicity (% positive for DAPI take-up at 50 μM)* (HeLa MKYP cells [2]; Table 3 Supplement A) | Visual inspection of crystallization ([3]; 1.6 μM) | Visual inspection of crystallization ([3]; 3.1 μM) | Visual inspection of crystallization ([3]; 6.3 μM) | Visual inspection of crystallization ([3]; 12.5 μM) | Visual inspection of crystallization ([3]; 25.0 μM) | Visual inspection of crystallization ([3]; 50.0 μM) | Inspection of round cells ([4]; 1.6 μM) | Inspection of round cells ([4]; 3.1 μM) | Inspection of round cells ([4]; 6.3 μM) | Inspection of round cells ([4]; 12.5 μM) | Inspection of round cells ([4]; 25.0 μM) | Inspection of round cells ([4]; 50.0 μM) | Toxicity (% positive for DAPI take-up at 50 μM)* (HeLa MKYP cells [2]; human) | Toxicity (% positive for DAPI takeup @ 50 μM) (HeLa MKYP cells [2]; human) | Potency (EC50 Max Mitophagy) (μM)* (HeLa MKYP cells [1]; Table 3 Supplement A, as measured in Table 3) | Toxicity (% positive for DAPI take-up at 50 μM)* (HeLa MKYP cells [2]; Table 3 Supplement A, listed as EP-0036297)
1 | CC(Nc1ncnc2[nH]c(C3CC3)nc12)c1ccccc1 (centres unmarked) [Compound 28] | 6.3 µM | 6.32 µM | 18.3% | 18.26% | 0 | 0 | 0 | 0 | 0 | 0 | 0 | 0 | 0 | 0 | 0 | 0 | – | – | – | –
2 | C[C@@H](Nc1ncnc2[nH]c(C(F)(F)F)cc12)c1ccccc1 [Compound 38] | 3.1 µM | 3.62 µM | 63.7% | 52.58% | 0 | 0 | 0 | 0 | 0 | 0 | 0 | 0 | 0 | 0 | 0 | 1 | – | – | – | –
3 | CCC(Nc1ncnc2[nH]c(C(F)(F)F)cc12)c1cncnc1 (centres unmarked) [Compound 43] | 18.8 µM | 18.8 µM | 15.9% | 15.86% | 0 | 0 | 0 | 0 | 0 | 0 | 0 | 0 | 0 | 0 | 0 | 0 | – | – | – | –
4 | C[C@H](Nc1ncnc2[nH]c(C(F)(F)F)cc12)c1cncnc1 [Compound 44] | 3.1 µM | 3.15 µM | – | – | 0 | 0 | 0 | 0 | 0 | 0 | 0 | 0 | 0 | 0 | 0 | 0 | 23.68% | 23.7% | – | –
5 | CN(C)C1CCC(CNc2ncnc3[nH]c(C(F)(F)F)cc23)CC1 (centres unmarked) [Compound 50] | > 50 µM | – | 5.2% | 5.16% | 0 | 0 | 0 | 0 | 0 | 0 | 0 | 0 | 0 | 0 | 0 | 0 | – | – | 0.01 µM | –
6 | C[C@@H](Nc1ncnc2[nH]cnc12)c1ccccc1 [Compound 52] | > 50 µM | > 25 µM | 10.1% | – | 0 | 0 | 0 | 0 | 0 | 0 | 0 | 0 | 0 | 0 | 0 | 0 | – | – | – | 10.14%
7 | COc1ncc(CNc2ncnc3[nH]c(C(F)(F)F)cc23)cn1 [Compound 66] | 10.6 µM | 10.6 µM | 5.8% | 5.76% | 0 | 0 | 0 | 0 | 1 | 1 | 0 | 0 | 0 | 0 | 1 | 1 | – | – | – | –
8 | c1ncc(CNc2ncnc3[nH]cnc23)cn1 [Compound 67] | 4.4 µM | 4.42 µM | – | – | 0 | 0 | 0 | 0 | 0 | 0 | 0 | 0 | 0 | 0 | 0 | 0 | 5.33% | 5.3% | – | –
9 | CCCCNc1ncnc2[nH]c(C(F)(F)F)c(C)c12 [Compound 68] | > 50 µM | > 25 µM | 11.9% | 11.94% | 0 | 0 | 0 | 0 | 0 | 0 | 0 | 0 | 0 | 0 | 0 | 0 | – | – | – | –
10 | CCCCNc1ncnc2c1cc(C(F)(F)F)n2C(C)=O [Compound 69] | > 50 µM | – | 36.6% | – | 0 | 0 | 0 | 0 | 0 | 0 | 0 | 0 | 0 | 0 | 0 | 0 | – | – | – | –

From patent publication US20220162215A1, “COMPOSITIONS AND METHODS OF USING THE SAME FOR TREATMENT OF NEURODEGENERATIVE AND MITOCHONDRIAL DISEASE” (MITOKININ, INC., priority 2019, published 2022)
